Assays:
[1] = target: T1, human oestrogenic receptor (Homo sapiens, UniProt P03372); settings: Milligan et al.; cited from earlier work
T1 construct: host or cells: yeast cells
T1 sequence (P03372 1-595): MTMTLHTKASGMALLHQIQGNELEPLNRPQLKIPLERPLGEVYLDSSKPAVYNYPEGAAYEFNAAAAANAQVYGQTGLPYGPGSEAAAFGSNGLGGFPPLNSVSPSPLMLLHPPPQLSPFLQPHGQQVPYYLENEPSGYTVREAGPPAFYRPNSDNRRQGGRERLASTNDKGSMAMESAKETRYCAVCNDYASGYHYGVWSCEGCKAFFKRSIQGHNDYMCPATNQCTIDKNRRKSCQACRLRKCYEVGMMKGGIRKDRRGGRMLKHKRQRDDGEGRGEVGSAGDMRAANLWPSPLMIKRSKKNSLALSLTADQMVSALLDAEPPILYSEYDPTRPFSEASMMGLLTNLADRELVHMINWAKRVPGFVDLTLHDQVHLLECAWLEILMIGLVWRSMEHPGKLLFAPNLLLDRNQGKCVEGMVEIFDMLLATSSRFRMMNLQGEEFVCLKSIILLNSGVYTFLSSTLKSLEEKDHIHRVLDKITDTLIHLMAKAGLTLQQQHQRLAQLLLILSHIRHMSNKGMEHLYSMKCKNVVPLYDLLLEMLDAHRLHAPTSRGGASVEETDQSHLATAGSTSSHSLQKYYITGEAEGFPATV

[2] = target: T2, human oestrogenic receptor alpha (ER-α) (Homo sapiens, UniProt P03372); experiment: competitive receptor binding assay, displacement of radioactively labelled oestradiol, ER-α; settings: for relative potency [formula] (ratio ER-α to ER-β): head is a formula, values fit relative potency ER-α / ER-β
T2 sequence (P03372 1-595): T1 sequence (P03372 1-595)
Experimental: Thereby, a radioactively labelled oestradiol was initially bonded to the human oestrogen receptor and then treated with the test substance to be examined. A portion of the labelled oestradiol which corresponds to the oestrogenic potency of the sample is thus displaced. Excessive oestradiol is washed out after bonding of the complex to hydroxylapatite. The oestrogenic receptors ER-α and ER-β were commercially available as recombinant human receptors. The test preparations consisted of 1000 μl TEDG buffer (10 mM tris, 1,5 mM EDTA, 10% glycerol, pH 7.5), 5 μl receptor (200 nM), 10 μl 3H-oestradiol and 10 μl ethanol (control value), 10 μl diethylstiloestrol (100 mM, positive control) or 10 μl extract or ingredient of the extract, respectively. The preparations were carefully mixed and incubated for about 16 hours at room temperature in the dark. After incubation 250 μl hydroxylapatite (HAP) were added to absorb the proteins. During a period of incubation of 15 minutes the preparations were manually mixed with a time-lag of 5 minutes, respectively. The precipitate is separated by centrifugation at 10,000 rpm for a few seconds and the supernatant liquid is separated by pipetting. The pellet is washed three times with 1000 μl TEDG buffer, respectively, 1000 μl ethanol are added for the measurement, the mixture is slurried and transferred to a scintillation vial. After adding 9 ml scintillator liquid (Ready Safe, Beckmann) a measurement over the complete ^3H window is carried out using a Beckmann Beta-Counter.
The characterisation of the bonding capacities of the test substances results from the determination of the ED50 values taken from the dosis-effect-plots of the displacement of oestradiol.

Ishikawa-Var-I-cells = settings: cited from earlier work
ovariectomised rats = settings: Miyamoto et al. 1998; cited from earlier work
[3] = system: colon cancer cell lines HAT-29; settings: Miranda et al. 1999; cited from earlier work
[4] = system: ovarian cancer cell lines A-2780; settings: Miranda et al. 1999; cited from earlier work
[5] = system: human breast cancer cells MCF-7; settings: Miranda et al. 1999; cited from earlier work
osteolysis = settings: EP 0 679 393 B1; cited from earlier work

Structure (SMILES) | oestrogenic activity, human oestrogenic receptor in yeast [1] | relative potency [formula] (ratio ER-α to ER-β) [2] | antiproliferative activity [3] | antiproliferative activity [4] | antiproliferative activity [5] | interaction with ER-α, in words [2] | further results
CC(C)=CCc1c(O)cc2c(c1O)C(=O)C[C@@H](c1ccc(O)cc1)O2 | weaker oestrogenic properties | 0.37 |  |  |  |  | 
CC(C)=CCc1c(O)cc(O)c2c1O[C@H](c1ccc(O)cc1)CC2=O | most powerful oestrogenic activity | 2.72 |  |  |  |  | oestrogenic activity in vitro, stimulating alkaline phosphatase (Ishikawa-Var-I-cells; Ishikawa-Var-I-cells, Milligan et al. 1999): significantly more active than the phytooestrogenes known so far; osseous density (ovariectomised rats): normalises; weight of the uterus (ovariectomised rats): normalises
CC(C)=CCc1c(O)c(CC=C(C)C)c2c(c1O)C(=O)C[C@@H](c1ccc(O)cc1)O2 [6,8-diprenylnaringenine] | weaker oestrogenic properties |  |  |  |  |  | 
CC(C)=CCC/C(C)=C/Cc1c(O)cc(O)c2c1O[C@H](c1ccc(O)cc1)CC2=O [8-geranylnaringenine] | weaker oestrogenic properties |  |  |  |  |  | 
COc1cc(O)c(CC=C(C)C)c2c1C(=O)CC(c1ccc(O)cc1)O2 (stereo not shown) [Isoxanthohumol, isoxanthohumol] |  | 0.54 | strong antiproliferative activity | strong antiproliferative activity | strong antiproliferative activity | comparable activity | 
COc1cc(O)c(CC=C(C)C)c(O)c1C(=O)/C=C/c1ccc(O)cc1 [Xanthohumol] | could not be detected | 0.78 | strong antiproliferative activity | strong antiproliferative activity | strong antiproliferative activity | comparable activity | effect on osteolysis (osteolysis): inhibiting effect; oestrogenic activity in human endometrial carcinoma cell line Ishikawa (Ishikawa-Var-I-cells; Milligan et al.): could not be detected
